Patent US4257941A, “Polycyclic nitrogen-containing compounds” (BASF Aktiengesellschaft, priority 1976, dated 1981)
Read-outs that look alike come from different tables or passages of the source.

Legend:
Type in all cases: in vivo
[1] = system: Solanum nigrum; assay: Herbicidal action (Example 25)
Protocol: (§1) Paraffined paper cups having a volume of 170 cm^3 were filled with a sandy loam, and the seeds of the test plants sown therein, separated by species. (The species are also listed below.)
(§2) In the first group, treatment was effected immediately after sowing and before germination of the seeds (preemergence treatment=soil treatment). Shallow sown seeds not completely covered with soil came into contact with the active ingredients. In the second group, the plants were treated postemergence (=leaf treatment) at a growth height of from 2 to 8 cm, depending on the rate of growth and shape of the species concerned. The compounds were suspended or emulsified in water and applied with the aid of fine nozzles. The soil and plants were thoroughly sprinkler irrigated for the duration of the experiment. The cups were placed in the greenhouse and kept in the temperature range 12°-25° C. or 18°-35° C., depending on the temperature requirements of the various species. After 2 to 6 weeks the action was assessed visually on a 0 to 100 scale, 0 denoting no damage and 100 denoting plants not germinated or completely destroyed.

[2] = system: Poa annua; assay: Herbicidal action (Example 25); conditions: for pest or weed control at 2000 g/ha / pest or weed control at 4000 g/ha / pest or weed control at 8000 g/ha: Poa annua, read-out: percentage damage; for pest or weed control at 4000 g/ha: 4.0 kg/ha; for pest or weed control at 8000 g/ha: 8.0 kg/ha
Protocol: as §1, §2

[3] = system: Galium aparine; assay: Herbicidal action (Example 25); conditions: read-out: percentage damage
Protocol: as §1, §2

[4] = system: Lamium spp.; assay: Herbicidal action (Example 25)
Protocol: as §1, §2

[5] = system: Hordeum vulgare; assay: Growth height of young cereal plants (Example 11, Table A); conditions: soil treatment
Source text: (§3) The vessels used for the experiments were plastic pots having a volume of 1,130 cm^3 (Table A) or paraffined paper cups having a volume of 170 cm^3 (Table B). The pots and cups were filled with a sandy loam. The seeds of the test plants-separated by species-were sown shallow. Preemergence treatment (soil treatment) was effected immediately after sowing and before germination of the seeds. Seeds lying on the surface came into contact with the active ingredients. Postemergence treatment (leaf treatment) took place at an average growth height of the plants (depending on the rate of growth) of from 6 to 10 cm. The substances were suspended, emulsified or dissolved in water as diluent and applied by means of fine nozzles. The vessels were kept in the greenhouse in a temperature range of 12° C. to 25° C., and were regularly sprinkler irrigated for the duration of the experiment. The observation period was 6 to 8 weeks.

[6] = system: Triticum aestivum; assay: as above
Source text: as §3

[7] = post-emergence, postemergence, 2.0 kg/ha
[8] = pre-emergence, preemergence, 2.0 kg/ha
[9] = post-emergence, postemergence, 4.0 kg/ha
[10] = post-emergence, postemergence, 8.0 kg/ha
[11] = pre-emergence, preemergence, 4.0 kg/ha
[12] = pre-emergence, preemergence, 8.0 kg/ha

| SMILES | percentage damage ([1]; postemergence, 2.0 kg/ha) [percentage damage] | percentage damage ([1]; postemergence, 4.0 kg/ha) [percentage damage] | percentage damage ([1]; postemergence, 8.0 kg/ha) [percentage damage] | percentage damage ([1]; preemergence, 2.0 kg/ha) [percentage damage] | percentage damage ([1]; preemergence, 4.0 kg/ha) [percentage damage] | percentage damage ([1]; preemergence, 8.0 kg/ha) [percentage damage] | pest or weed control at 2000 g/ha [2, 7] [%] | pest or weed control at 4000 g/ha ([2]; post-emergence, postemergence) [%] | pest or weed control at 8000 g/ha ([2]; post-emergence, postemergence) [%] | pest or weed control at 4000 g/ha ([2]; pre-emergence, preemergence) [%] | pest or weed control at 8000 g/ha ([2]; pre-emergence, preemergence) [%] | percentage damage ([4]; postemergence, 2.0 kg/ha) [percentage damage] | percentage damage ([4]; postemergence, 4.0 kg/ha) [percentage damage] | Growth height ([5]; 0.5 kg/ha) [cm] | Growth height ([5]; 1.0 kg/ha) [cm] | Growth height ([5]; 2.0 kg/ha) [cm] | Growth height ([6]; leaf treatment, 0.5 kg/ha) [cm] | Growth height ([6]; leaf treatment, 1.0 kg/ha) [cm] | Growth height ([6]; leaf treatment, 2.0 kg/ha) [cm] | Growth height ([6]; soil treatment, 0.5 kg/ha) [cm] | further results |
| --- | --- | --- | --- | --- | --- | --- | --- | --- | --- | --- | --- | --- | --- | --- | --- | --- | --- | --- | --- | --- | --- |
| CN(C)C(=O)Nc1ccc(Oc2ccccc2)cc1 [drawing 427] | 100 | 100 | 100 | 75 | 80 | 90 | 30 | 30 | 30 | 58 | 65 | 75 | 85 | – | – | – | – | – | – | – | pest or weed control at 2000 g/ha [2, 8]: 50%; pest or weed control at 2000 g/ha [3, 7]: 0%; pest or weed control at 4000 g/ha [3, 9]: 0%; pest or weed control at 8000 g/ha [3, 10]: 0%; pest or weed control at 2000 g/ha [3, 8]: 60%; pest or weed control at 4000 g/ha [3, 11]: 80%; pest or weed control at 8000 g/ha [3, 12]: 75%; percentage damage ([4]; postemergence, 8.0 kg/ha): 85 percentage damage; percentage damage ([4]; preemergence, 2.0 kg/ha): 50 percentage damage; percentage damage ([4]; preemergence, 4.0 kg/ha): 65 percentage damage; percentage damage ([4]; preemergence, 8.0 kg/ha): 75 percentage damage |
| c1csc(N2N=NC3C4CC(C5N=NC45)C32)n1 (centres unmarked) [drawing 432] | 90 | 95 | 100 | 95 | 95 | 95 | 38 | 52 | 68 | 92 | 95 | 55 | 60 | – | – | – | – | – | – | – | pest or weed control at 2000 g/ha [2, 8]: 80%; pest or weed control at 2000 g/ha [3, 7]: 10%; pest or weed control at 4000 g/ha [3, 9]: 18%; pest or weed control at 8000 g/ha [3, 10]: 30%; pest or weed control at 2000 g/ha [3, 8]: 72%; pest or weed control at 4000 g/ha [3, 11]: 98%; pest or weed control at 8000 g/ha [3, 12]: 90%; percentage damage ([4]; postemergence, 8.0 kg/ha): 95 percentage damage; percentage damage ([4]; preemergence, 2.0 kg/ha): 95 percentage damage; percentage damage ([4]; preemergence, 4.0 kg/ha): 95 percentage damage; percentage damage ([4]; preemergence, 8.0 kg/ha): 95 percentage damage |
| c1ccc(N2N=NC3C4CC(C5N=NC45)C32)cc1 (centres unmarked) [drawing 431] | 85 | 100 | 100 | 95 | 95 | 95 | 35 | 40 | 50 | 100 | 100 | 60 | 90 | – | – | – | – | – | – | – | percentage damage ([2]; preemergence, 2.0 kg/ha): 100 percentage damage; pest or weed control at 2000 g/ha [3, 7]: 10%; pest or weed control at 4000 g/ha [3, 9]: 15%; pest or weed control at 8000 g/ha [3, 10]: 20%; pest or weed control at 2000 g/ha [3, 8]: 80%; pest or weed control at 4000 g/ha [3, 11]: 100%; pest or weed control at 8000 g/ha [3, 12]: 100%; percentage damage ([4]; postemergence, 8.0 kg/ha): 90 percentage damage; percentage damage ([4]; preemergence, 2.0 kg/ha): 95 percentage damage; percentage damage ([4]; preemergence, 4.0 kg/ha): 95 percentage damage; percentage damage ([4]; preemergence, 8.0 kg/ha): 95 percentage damage |
| CC(C)OC(=O)Nc1cccc(Cl)c1 [drawing 426] | 22 | 22 | 38 | 85 | 85 | 90 | 30 | 30 | 42 | 100 | 100 | 50 | 50 | – | – | – | – | – | – | – | pest or weed control at 2000 g/ha [2, 8]: 100%; pest or weed control at 2000 g/ha [3, 7]: 0%; pest or weed control at 4000 g/ha [3, 9]: 0%; pest or weed control at 8000 g/ha [3, 10]: 10%; pest or weed control at 2000 g/ha [3, 8]: 88%; pest or weed control at 4000 g/ha [3, 11]: 80%; pest or weed control at 8000 g/ha [3, 12]: 88%; percentage damage ([4]; postemergence, 8.0 kg/ha): 90 percentage damage; percentage damage ([4]; preemergence, 2.0 kg/ha): 72 percentage damage; percentage damage ([4]; preemergence, 4.0 kg/ha): 90 percentage damage; percentage damage ([4]; preemergence, 8.0 kg/ha): 95 percentage damage |
| c1cc2sncc2cc1N1N=NC2C3CC(C4N=NC34)C21 (centres unmarked) [drawing 368] | – | – | – | – | – | – | – | – | – | – | – | – | – | 36 | 39 | 31 | 23 | 26 | 20 | 28 | Growth height ([6]; leaf treatment, 0.25 kg/ha): 30 cm; Growth height ([6]; soil treatment, 0.25 kg/ha): 32 cm; Growth height ([6]; soil treatment, 1.0 kg/ha): 20 cm; Growth height ([6]; soil treatment, 2.0 kg/ha): 23 cm |
| Clc1ccc(N2N=NC3C4CC(C5NNC45)C32)cc1 (centres unmarked) [drawing 369] | – | – | – | – | – | – | – | – | – | – | – | – | – | 30 | 18 | 14 | 30 | 28 | 25 | 12 | Growth height ([5]; 0.25 kg/ha): 36 cm; Growth height ([6]; leaf treatment, 0.25 kg/ha): 36 cm; Growth height ([6]; soil treatment, 0.25 kg/ha): 22 cm; Growth height ([6]; soil treatment, 1.0 kg/ha): 6 cm; Growth height ([6]; soil treatment, 2.0 kg/ha): 7 cm |
| O=[N+]([O-])c1cccc(N2N=NC3C4CC(C5N=NC45)C32)c1 (centres unmarked) | – | – | – | – | – | – | – | – | – | – | – | – | – | 36 | 36 | 29 | 28 | 28 | 17 | 26 | Growth height ([6]; soil treatment, 1.0 kg/ha): 26 cm; Growth height ([6]; soil treatment, 2.0 kg/ha): 13 cm |
| FC(F)(F)c1ccc(Cl)c(N2N=NC3C4CC(C5N=NC45)C32)c1 (centres unmarked) [drawing 361] | – | – | – | – | – | – | – | – | – | – | – | – | – | 40 | 39 | 38 | 42 | 27 | 20 | 16 | Growth height ([6]; soil treatment, 1.0 kg/ha): 15 cm; Growth height ([6]; soil treatment, 2.0 kg/ha): 0 cm |
| C=CCN(CC=C)C(=O)CCl [drawing 428] | 10 | 10 | 20 | 0 | 15 | 25 | 35 | 35 | 40 | 98 | 100 | 0 | 10 | – | – | – | – | – | – | – | pest or weed control at 2000 g/ha [2, 8]: 95%; pest or weed control at 2000 g/ha ([3]; post-emergence): 5%; pest or weed control at 4000 g/ha ([3]; post-emergence): 5%; pest or weed control at 8000 g/ha ([3]; post-emergence): 5%; pest or weed control at 2000 g/ha ([3]; pre-emergence): 70%; pest or weed control at 4000 g/ha ([3]; pre-emergence): 80%; pest or weed control at 8000 g/ha ([3]; pre-emergence): 90%; percentage damage ([4]; postemergence, 8.0 kg/ha): 20 percentage damage; percentage damage ([4]; preemergence, 2.0 kg/ha): 25 percentage damage; percentage damage ([4]; preemergence, 4.0 kg/ha): 60 percentage damage; percentage damage ([4]; preemergence, 8.0 kg/ha): 85 percentage damage |
| Clc1ccc(N2N=NC3C4CC(C5N=NC45)C32)c(Cl)c1 (centres unmarked) | – | – | – | – | – | – | – | – | – | – | – | – | – | 40 | 38 | 53 | 40 | 34 | 35 | 25 | Growth height ([6]; soil treatment, 1.0 kg/ha): 25 cm; Growth height ([6]; soil treatment, 2.0 kg/ha): 20 cm |
| Clc1cccc(N2N=NC3C4CC(C5N=NC45)C32)c1 (centres unmarked) [drawing 364] | – | – | – | – | – | – | – | – | – | – | – | – | – | 43 | 40 | 30 | 25 | 13 | 12 | 15 | Growth height ([6]; leaf treatment, 0.25 kg/ha): 29 cm; Growth height ([6]; soil treatment, 0.25 kg/ha): 26 cm |
